≈ marks a conversion by molar mass, not a printed value. One block for each compound: values may come before it.
What was measured:
Type in all cases: cell-based
[1] = test system: spermatozoa; assay: SANDERS-CRAMER total spermicidal test according to IPPF standards
[2] = test system: Pseudomonas aeruginosa; assay: MIC of antibiotics by microdilution in liquid medium on plates (Example 18); conditions: for MIC: Pseudomonas aeruginosa
Procedure: The unicellular living organism chosen for the trials is Pseudomonas aeruginosa (wild-type strain originating from hospital sources).
The same methodology as for Examples 11 and 12 was follows. Bacteriostatic analyses were performed with a number of antibiotics belonging to benzylpenicillins, and aminopenicillins, and first and second generation cephalosporins, namely:
The determination of the MIC was carried out by the microdilution method in liquid medium on plates. Aqueous solutions of each antibiotic are prepared in MUELLER HINION broth, to obtain dilutions in a geometric ratio of 2. The solvent is sterile double-distilled water.
The preparation of the bacterial inoculum is made with a culture of Pseudomonas aeruginosa, with agitation on a water bath at 37° C. for 4 to 6 hours, giving 10^6 bacteria/ml.
Three trials were performed per antibiotic and per bacterial inoculum. The trials were performed first with the antibiotics alone (trials a).sctn., and then with the addition of a dose of 1 mg/l of an aqueous solution of lithium fluoride (trials b).sctn. to the dilution of each one in every cup of every plate.

[3] = test system: Gardnerella vaginalis; assay: Number of strains inhibited, bactericidal substance incorporated in culture medium (first trial); conditions: NaF or LiF 1 mg/l where added
Procedure: In the first trial, the sample of bactericidal substance was incorporated directly in the specific culture edium of the microorganism. A concentration series of the bactericidal substance was prepared in the geometric ratio of 2, from 400 μg/ml to 1.56 μg/ml. The cell concentration used in the seeding of the Petri dishes was […]. A 24-hour incubation was performed at 37° C. and then, for each wild-type strain tested, the concentration of primary principle destroying all the microorganisms (see method of Professor F. CATALAN et al., Institut A. FOURNIER, PARIS) was determined. The trail was performed on 32 wild-type strains of Gardnerella vaginalis originating from hospital sources and with benzalkonium chloride and then nonoxinol 9 as active principles, and with sodium fluoride NaF at a concentration of 1 mg/l and then lithium fluoride LiF at a concentration of 1 mg/l as activating principles.

[4] = test system: Pseudomonas aeruginosa; assay: MIC on 200 wild-type strains of Pseudomonas aeruginosa (Examples 19 and 20)
Procedure: With the same methodology as above, the MIC values of benzalkonium chloride alone, in the presence of the KATHON CG (registered trademark) preservative (1 mg/l), and then in the presence of KATHON CG (registered trademark) (1 mg/l) and lithium fluoride (1 mg/l), were determined. 200 wild-type strains of Pseudomonas aeruginosa were tested.
The same trial as in Example 19 was performed, but with nonoxinol 9 as the primary active principle: 200 wild-type strains of Pseudomonas aeruginosa were also tested.

[5] = test system: Pseudomonas aeruginosa; assay: Resistance of Pseudomonas aeruginosa to antiseptics in terms of water hardness and proteins;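 also: R means colony growth observed and S means no significant growth; key: R: resistant (a growth of colonies was observed); S: sensitive (no significant growth was observed)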
Procedure: The resistance of Pseudomonas aeruginosa to various reputedly bactericidal active principles or commercial antiseptics was studied in terms of the hardness of the water and the presence or absence of proteins. The same trial was carried out on the foaming paste according to the invention (see Example 15).

[6] = alone, strain lic R βLac^+ OXA, read-out: MIC (average MIC value)
[7] = alone, strain lic R βLac^+ PSE, read-out: MIC (average MIC value)
[8] = alone, strain lic R βLac^+ TEM, read-out: MIC (average MIC value)
[9] = alone, strain lic R βLac^+ cephalosporinase, read-out: MIC (average MIC value)
[10] = alone, strain lic S βLac^- (first column), read-out: MIC (average MIC value)
[11] = alone, strain lic S βLac^- (second column), read-out: MIC (average MIC value)
[12] = + LiF 1 mg/l, strain lic R βLac^+ OXA, read-out: MIC (average MIC value)
[13] = + LiF 1 mg/l, strain lic R βLac^+ PSE, read-out: MIC (average MIC value)
[14] = + LiF 1 mg/l, strain lic R βLac^+ TEM, read-out: MIC (average MIC value)
[15] = + LiF 1 mg/l, strain lic R βLac^+ cephalosporinase, read-out: MIC (average MIC value)
[16] = + LiF 1 mg/l, strain lic S βLac^- (first column), read-out: MIC (average MIC value)
[17] = + LiF 1 mg/l, strain lic S βLac^- (second column), read-out: MIC (average MIC value)
[18] = 0.2 ml inoculum, contact time 10 mn, distilled water, P+
[19] = 0.2 ml inoculum, contact time 10 mn, distilled water, P-
[20] = 0.2 ml inoculum, contact time 10 mn, hard water, P+
[21] = 0.2 ml inoculum, contact time 10 mn, hard water, P-
[22] = 0.4 ml inoculum, contact time 20 mn, distilled water, P+
[23] = 0.4 ml inoculum, contact time 20 mn, distilled water, P-
[24] = 0.4 ml inoculum, contact time 20 mn, hard water, P+
[25] = 0.4 ml inoculum, contact time 20 mn, hard water, P-
[26] = 0.6 ml inoculum, contact time 30 mn, distilled water, P+
[27] = 0.6 ml inoculum, contact time 30 mn, distilled water, P-
[28] = 0.6 ml inoculum, contact time 30 mn, hard water, P+
[29] = 0.6 ml inoculum, contact time 30 mn, hard water, P-

Compound: [Cl-].[Li+] [lithium chloride]
MIC ([1]; alone): 20 ppm
MIC, equivalent in % ([1]; alone): 0.002%

Compound: CC1(C)S[C@@H]2[C@H](NC(=O)[C@H](C(=O)O)c3ccsc3)C(=O)N2[C@H]1C(=O)O [ticarcillin]
number of strains resistant, of 958 strains tested [2]: 235
MIC [2, 6]: 512 µg/mL
MIC [2, 7]: 4100 µg/mL
MIC [2, 8]: 1020 µg/mL
MIC [2, 9]: 256 µg/mL
MIC [2, 10]: 32 µg/mL
MIC [2, 11]: 512 µg/mL

Compound: CCCCCCCCCc1ccc(OCCOCCOCCOCCOCCOCCOCCOCCOCCO)cc1 [Nonoxinol 9]
number of strains inhibited out of the 32 tested ([3]; primary active principle 1.56 mg/l): 0
number of strains inhibited out of the 32 tested ([3]; primary active principle 3.125 mg/l): 0
number of strains inhibited out of the 32 tested ([3]; primary active principle 6.25 mg/l): 0
number of strains inhibited out of the 32 tested ([3]; primary active principle 12.5 mg/l): 0
number of strains inhibited out of the 32 tested ([3]; primary active principle 25 mg/l): 4
number of strains inhibited out of the 32 tested ([3]; primary active principle 50 mg/l): 6
number of strains inhibited out of the 32 tested ([3]; primary active principle 100 mg/l): 10
number of strains inhibited out of the 32 tested ([3]; primary active principle 200 mg/l): 25
number of strains inhibited out of the 32 tested ([3]; primary active principle 400 mg/l): 32
MIC ([4]; + KATHON CG (1 mg/l) + LiF (1 mg/l), strain Tic R βLac^+): 64 µg/mL
MIC ([4]; + KATHON CG (1 mg/l) + LiF (1 mg/l), strain Tic R βLac^+ OXA): 64 µg/mL
MIC ([4]; + KATHON CG (1 mg/l) + LiF (1 mg/l), strain Tic R βLac^+ PSE): 64 µg/mL
MIC ([4]; + KATHON CG (1 mg/l) + LiF (1 mg/l), strain Tic R βLac^+ TEM): 64 µg/mL
MIC ([4]; + KATHON CG (1 mg/l) + LiF (1 mg/l), strain Tic R βLac^+ cephalosporinase): 128 µg/mL
MIC ([4]; + KATHON CG (1 mg/l) + LiF (1 mg/l), strain Tic S βLac^-): 32 µg/mL
MIC ([4]; alone, strain Tic R βLac^+): 128 µg/mL (≈ 208 µM)
MIC ([4]; alone, strain Tic R βLac^+ OXA): 128 µg/mL (≈ 208 µM)
MIC ([4]; alone, strain Tic R βLac^+ PSE): 64 µg/mL (≈ 104 µM)
MIC ([4]; alone, strain Tic R βLac^+ TEM): 128 µg/mL (≈ 208 µM)
MIC ([4]; alone, strain Tic R βLac^+ cephalosporinase): 256 µg/mL (≈ 415 µM)
MIC ([4]; alone, strain Tic S βLac^-): 64 µg/mL (≈ 104 µM)

Compound: CC(C)(O/N=C(\C(=O)N[C@@H]1C(=O)N2C(C(=O)[O-])=C(C[n+]3ccccc3)CS[C@H]12)c1csc(N)n1)C(=O)O [CAFTAZIDIME, ceftazidime]
MIC ([2]; read-out: MIC (average MIC value), + LiF 1 mg/l, strain lic R βLac^+ OXA): 4 µg/mL
MIC ([2]; read-out: MIC (average MIC value), + LiF 1 mg/l, strain lic R βLac^+ PSE): 2 µg/mL
MIC ([2]; read-out: MIC (average MIC value), + LiF 1 mg/l, strain lic R βLac^+ TEM): 4 µg/mL
MIC ([2]; read-out: MIC (average MIC value), + LiF 1 mg/l, strain lic R βLac^+ cephalosporinase): 32 µg/mL
MIC ([2]; read-out: MIC (average MIC value), + LiF 1 mg/l, strain lic S βLac^- (first column)): 2 µg/mL
MIC ([2]; read-out: MIC (average MIC value), + LiF 1 mg/l, strain lic S βLac^- (second column)): 4 µg/mL
MIC ([2]; read-out: MIC (average MIC value), alone, strain lic R βLac^+ OXA): 4 µg/mL
MIC ([2]; read-out: MIC (average MIC value), alone, strain lic R βLac^+ PSE): 2 µg/mL
MIC ([2]; read-out: MIC (average MIC value), alone, strain lic R βLac^+ TEM): 4 µg/mL
MIC ([2]; read-out: MIC (average MIC value), alone, strain lic R βLac^+ cephalosporinase): 32 µg/mL
MIC ([2]; read-out: MIC (average MIC value), alone, strain lic S βLac^- (first column)): 4 µg/mL
MIC ([2]; read-out: MIC (average MIC value), alone, strain lic S βLac^- (second column)): 4 µg/mL

MIC [2, 12]: 32 µg/mL
MIC [2, 13]: 32 µg/mL
MIC [2, 14]: 8 µg/mL
MIC [2, 15]: 16 µg/mL
MIC [2, 16]: 2 µg/mL
MIC [2, 17]: 8 µg/mL
MIC [2, 6]: 32 µg/mL
MIC [2, 7]: 64 µg/mL
MIC [2, 8]: 16 µg/mL
MIC [2, 9]: 16 µg/mL
MIC [2, 10]: 4 µg/mL
MIC [2, 11]: 16 µg/mL
Compound: CC1(C)S[C@@H]2[C@H](NC(=O)[C@H](NC(=O)c3cnc4cccnc4c3O)c3ccccc3)C(=O)N2[C@H]1C(=O)O [APALCILLIN, apalcillin]

MIC [2, 12]: 64 µg/mL
MIC [2, 13]: 64 µg/mL
MIC [2, 14]: 64 µg/mL
MIC [2, 15]: 128 µg/mL
MIC [2, 16]: 8 µg/mL
MIC [2, 17]: 8 µg/mL
MIC [2, 6]: 64 µg/mL
MIC [2, 7]: 128 µg/mL
MIC [2, 8]: 64 µg/mL
MIC [2, 9]: 128 µg/mL
MIC [2, 10]: 8 µg/mL
MIC [2, 11]: 16 µg/mL
Compound: CCN1CCN(C(=O)N[C@@H](C(=O)N[C@@H]2C(=O)N3[C@@H]2SC(C)(C)[C@@H]3C(=O)O)c2ccccc2)C(=O)C1=O [PIPERACILLIN, piperacillin]

MIC [2, 12]: 64 µg/mL
MIC [2, 13]: 64 µg/mL
MIC [2, 14]: 64 µg/mL
MIC [2, 15]: 128 µg/mL
MIC [2, 16]: 4 µg/mL
MIC [2, 17]: 32 µg/mL
MIC [2, 6]: 64 µg/mL
MIC [2, 7]: 64 µg/mL
MIC [2, 8]: 64 µg/mL
MIC [2, 9]: 128 µg/mL
MIC [2, 10]: 8 µg/mL
MIC [2, 11]: 32 µg/mL
Compound: CC1(C)S[C@@H]2[C@H](NC(=O)[C@H](NC(=O)N3CCNC3=O)c3ccccc3)C(=O)N2[C@H]1C(=O)O [AZLOCILLIN, azlocillin]

MIC [2, 12]: 16 µg/mL
MIC [2, 13]: 16 µg/mL
MIC [2, 14]: 32 µg/mL
MIC [2, 15]: 64 µg/mL
MIC [2, 16]: 4 µg/mL
MIC [2, 17]: 16 µg/mL
MIC [2, 6]: 16 µg/mL
MIC [2, 7]: 32 µg/mL
MIC [2, 8]: 32 µg/mL
MIC [2, 9]: 64 µg/mL
MIC [2, 10]: 4 µg/mL
MIC [2, 11]: 16 µg/mL
Compound: NC(=O)c1cc[n+](CC2=C(C(=O)O)N3C(=O)[C@@H](NC(=O)[C@@H](c4ccccc4)S(=O)(=O)[O-])[C@H]3SC2)cc1 [CEFSULODIN, cefsulodin]

Compound: O=S(=O)([O-])[O-].[Zn+2] [Zinc sulphate]
resistance [5, 18]: R
resistance [5, 19]: R
resistance [5, 20]: R
resistance [5, 21]: R
resistance [5, 22]: R
resistance [5, 23]: R
resistance [5, 24]: R
resistance [5, 25]: R
resistance [5, 26]: R
resistance [5, 27]: R
resistance [5, 28]: R
resistance [5, 29]: R

Compound: C=O [Formaldehyde]
resistance [5, 18]: S
resistance [5, 19]: S
resistance [5, 20]: S
resistance [5, 21]: S
resistance [5, 22]: S
resistance [5, 23]: S
resistance [5, 24]: S
resistance [5, 25]: S
resistance [5, 26]: S
resistance [5, 27]: S
resistance [5, 28]: S
resistance [5, 29]: S

Compound: [Li+] [Li^+ ions]
spermicidal effect ([1]; in words): A spermicidal effect

MIC [2, 12]: 32 µg/mL
MIC [2, 13]: 16 µg/mL
MIC [2, 14]: 32 µg/mL
MIC [2, 15]: 128 µg/mL
MIC [2, 16]: 8 µg/mL
MIC [2, 17]: 16 µg/mL
MIC [2, 6]: 32 µg/mL
MIC [2, 7]: 32 µg/mL
MIC [2, 8]: 32 µg/mL
MIC [2, 9]: 256 µg/mL
MIC [2, 10]: 16 µg/mL
MIC [2, 11]: 32 µg/mL
Compound: CO/N=C(\C(=O)N[C@@H]1C(=O)N2C(C(=O)O)=C(CSc3nc(=O)c(=O)[nH]n3C)CS[C@H]12)c1csc(N)n1 [CEFTRIAXONE, ceftriaxone]

— US5800838A, “Composition that inhibits or destroys at least one unicellular living organism containing fluorine F- and Lithium li+” (priority 1987, dated 1998)
